In US20040050294A1, “Coloring material and color filter” (Dai Nippon Printing Co., Ltd., priority 1999, published 2004):

Assay: Solubility in solvents
Assay type: physicochemical
Conditions: for solubility in solvents: PGMEA (methoxypropyl acetate): solvent PGMEA; for solubility in solvents: THF: solvent THF; for solubility in solvents: chloroform: solvent chloroform; for solubility in solvents: cyclohexanone: solvent cyclohexanone; for solubility in solvents: ethyl acetate: solvent ethyl acetate; for solubility in solvents: methanol: solvent methanol

Structure (SMILES) | solubility in solvents: PGMEA (methoxypropyl acetate) | solubility in solvents: THF | solubility in solvents: chloroform | solubility in solvents: cyclohexanone | solubility in solvents: ethyl acetate | solubility in solvents: methanol
CCC(C)(C)OC(=O)N/C(=C1/C(=O)NC(c2ccc(Cl)cc2)=C1C(=O)OC)c1ccc(Cl)cc1 [compound 2] | 0.67 % by weight | 12.5 % by weight | 2 % by weight | 5 % by weight | 1 % by weight | 0.1 % by weight
CCC(C)(C)OC(=O)N/C(=C1/C(=O)N(C(=O)OC(C)(C)CC)C(c2ccc(Cl)cc2)=C1C(=O)OC)c1ccc(Cl)cc1 [compound 1] | 2 % by weight | 28.57 % by weight | 50 % by weight | 10 % by weight | 4.55 % by weight | 0.2 % by weight
CCC(C)(C)OC(=O)N1C(=O)C2=C(c3ccc(Cl)cc3)N(C(=O)OC(C)(C)CC)C(=O)C2=C1c1ccc(Cl)cc1 [DPP, N,N′-bis-tert-amyloxycarbonyl-1,4-diketo-3,6-di(4′-chlorophenyl)pyrrolo-[3,4-c]pyrrole, reference compound] | 5 % by weight | – | 10 % by weight | 10 % by weight | not more than 1 % by weight | –
